From US12570666B2, “Furoindazole derivatives” (Bayer Aktiengesellschaft, priority 2019, dated 2026)

Key:
rat DHT-PCOS model = experiment: In vivo assay 1: DHT driven rat PCOS model; design: species or system Han-Wistar rats; conditions: 26 days of drug administration
Protocol: In Vivo Assay 1: GPR84 Ligand and Antagonist Characterization in PCOS Model
The efficacy of Example 3-2 in vivo on the treatment of POCS was measured in the DHT driven rat PCOS model. At 3 weeks of age, Han-Wistar rats were randomly divided into three experimental groups [control (n=10), DHT (n=10), and DHT plus Example 3-2 (n=10)] and implanted s.c. with 60-d continuous-DHT-release pellets (80 μg/d, Bayer AG, Germany). The dose of DHT was chosen to mimic the hyperandrogenic state in women with PCOS. Controls received identical pellets lacking the bioactive DHT molecule. Animal received a standard chow, only for the last week standard show was replaced by a high fat diet. Rats were weighted bi-weekly from 21 d of age. The study was concluded after 26 days of drug administration. […] Statistical analysis was performed with one-way analysis of variance, followed by Bonferroni's multiple comparison test against vehicle control groups using the GraphPad PRISM software, *p<0.05.

human GPR84 receptor = molecular target: T1, human GPR84 receptor (Homo sapiens, UniProt Q9NQS5); experiment: cAMP HTRF assay for identification of cellular GPR84 antagonists; format: cell-based; conditions: CHO-K1 cells stably expressing human GPR84; Forskolin + agonist 6-OAU (EC80); average or median values
T1 construct: frozen aliquots prepared by acCELLerate; host or cells: CHO-K1
T1 sequence (Q9NQS5 whole entry): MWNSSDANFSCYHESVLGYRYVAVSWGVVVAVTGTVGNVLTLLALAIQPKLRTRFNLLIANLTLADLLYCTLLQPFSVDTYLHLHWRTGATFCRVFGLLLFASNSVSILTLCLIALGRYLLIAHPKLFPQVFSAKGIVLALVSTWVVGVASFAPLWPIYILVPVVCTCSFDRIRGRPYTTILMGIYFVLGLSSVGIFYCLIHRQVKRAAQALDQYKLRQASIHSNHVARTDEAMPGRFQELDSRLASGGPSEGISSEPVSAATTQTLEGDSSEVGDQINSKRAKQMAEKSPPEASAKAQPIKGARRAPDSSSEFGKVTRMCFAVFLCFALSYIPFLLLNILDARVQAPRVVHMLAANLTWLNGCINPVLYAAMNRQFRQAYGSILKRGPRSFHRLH
In short: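 Forskolin-stimulated CHO-K1 cells stably expressing human GPR84, agonist-suppressed cAMP measured by HTRF (665/620 ratio) after lysis. Compounds at 11 concentrations, 20 μM to 0.07 nM, duplicate; normalized to DMSO and no-agonist controls; IC50 by 4-parameter fit.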

[1] = test system: mouse CFA model of inflammation; experiment: In vivo assay 2: CFA pain model, dynamic weight-bearing (DWB); conditions: DWB 24 h after CFA
Protocol: In Vivo Assay 2: Effects of Example 3-2 in the CFA Pain Model
The efficacy of Example 3-2 in vivo on inflammatory pain was measured in inflamed paws after administration of complete Freund's adjuvant (CFA) (24 h) in the dynamic weight-bearing (DWB) model. The effects of repeated preventive treatment with Example 3-2 on pain following repeated oral administration (3×) in the mouse CFA model of inflammation were investigated using a preventive setting. The GPR84 antagonist Example 3-2 (20 or 60 mg/kg, 3× doses) was administered 2 h before injection of CFA and 6-8 h later at day 0. At 24 h after CFA application, the third dose of Example 3-2 was given 2 h before DWB testing. Statistical analysis was performed with one-way analysis of variance, followed by Bonferroni's multiple comparison test against vehicle control groups using the GraphPad PRISM software, *p<0.05.

SMILES	IC50 (human GPR84 receptor) [nM]	other results
Cc1c(C(=O)NC[C@@H]2CCCO2)oc2c1-c1nn(Cc3ccccn3)cc1CC2 [Example 3-2, 8-methyl-2-(pyridin-2-ylmethyl)-N-[(2S)-tetrahydrofuran-2-ylmethyl]-4,5-dihydro-2H-furo[2,3-g]indazole-7-carboxamide]	110	weight gain (rat DHT-PCOS model; DHT driven rat PCOS model): gained less weight compared to the untreated control; Relative weight vs. Vehicle control (rat DHT-PCOS model; rat DHT-PCOS model, p.o. 60 mg/kg morning dose + s.c. 60 mg/kg evening dose, DHT-Vehicle group 111%): 103% * (significant vs.; Weight distribution (% weight on injected paw) mean +/- SD ([1]; 3x 20 mg p.o., vehicle 43 +/- 20, not significant vs. vehicle group): 60 +/− 21 (not significant vs. vehicle group) %; Weight distribution (% weight on injected paw) mean +/- SD ([1]; 3x 60 mg p.o., vehicle 43 +/- 20, significant vs. vehicle group): 83 +/− 18 (significant vs. vehicle group) %
Cc1c(C(=O)NC[C@@H]2CCCO2)oc2c1-c1nn(C[C@H]3CCCO3)cc1CC2 [Example 105, 8-methyl-2-{[(2R)-tetrahydrofuran-2-yl]methyl]-N-[(2S)-tetrahydrofuran-2-ylmethyl]-4,5-dihydro-2H-furo[2,3-g]indazole-7-carboxamide]	72	
Cc1c(C(=O)NC[C@@H]2COCCO2)oc2c1-c1nn(C[C@H]3CCO3)cc1CC2 [Example 98, N-[(2R)-1,4-dioxan-2-ylmethyl]-8-methyl-2-[(2R)-oxetan-2-ylmethyl]-4,5-dihydro-2H-furo[2,3-g]indazole-7-carboxamide]	470	
O=C(NCc1ncco1)c1oc2c(c1C(F)(F)F)-c1nn(C[C@H]3COCCO3)cc1C1(CCC1)C2 [Example 272, 2′-{[(2S)-1,4-dioxan-2-yl]methyl}-N-[(1,3-oxazol-2-yl)methyl]-8′-(trifluoromethyl)-2′,51-dihydrospiro[cyclobutane-1,4′-furo[2,3-g]indazole]-7′-carboxamide]	42	
Cc1c(C(=O)NC[C@@H]2COCCO2)oc2c1-c1nn(Cc3cccnn3)cc1CC2 [Example 185]	551	
Cc1c(C(=O)NCc2ccon2)oc2c1-c1nn(Cc3ccccn3)cc1CC2 [Example 6, 8-methyl-N-(1,2-oxazol-3-ylmethyl)-2-(pyridin-2-ylmethyl)-4,5-dihydro-2H-furo[2,3-g]indazole-7-carboxamide]	800	

Compounds with a lower IC50 (human GPR84 receptor), results first:

IC50 (human GPR84 receptor) [nM]	SMILES	other results
8	Cc1ccc(Cn2cc3c(n2)-c2c(oc(C(=O)NC[C@@H]4COCCO4)c2C(F)(F)F)CC3)cn1 [Example 191]	
7	C[C@@H]1Cc2oc(C(=O)NC[C@@H]3CCCO3)c(C(F)(F)F)c2-c2nn(CC3CCN(C(=O)C4(O)CC4)CC3)cc21 (single isomer, unassigned) [Example 293, (4R or 4S)-2-{[1-(1-hydroxycyclopropane-1-carbonyl)piperidin-4-yl]methyl}-4-methyl-N-{[(2S)-oxolan-2-yl]methyl}-8-(trifluoromethyl)-4,5-dihydro-2H-furo[2,3-g]indazole-7-carboxamide]	
40	C[C@@H]1Cc2oc(C(=O)NCc3cn(C)cn3)c(C(F)(F)F)c2-c2nn(C[C@H]3COCCO3)cc21 (single isomer, unassigned) [Example 314, (4R or 4S)-2-{[(2S)-1,4-dioxan-2-yl]methyl}-4-methyl-N-[(1-methyl-1H-imidazol-4-yl)methyl]-8-(trifluoromethyl)-4,5-dihydro-2H-furo[2,3-g]indazole-7-carboxamide]	
